Where a name gives a salt, the structure may show the parent alone.
Target: T1, rat mGlu 1a receptor (Rattus norvegicus, UniProt P23385)
T1 construct: expressed in transfected cells; host or cells: EBNA cells (transient transfection)
Assay: [Ca2+]i measurements (FLIPR, Fluo-3 AM) on mGlu 1a transfected EBNA cells; agonist or antagonist (against 10 μM glutamate)
Type: cell-based
Conditions: for Remarks (agonist / antagonist): table of substituents of the Examples, column Remarks
Method: cDNA encoding rat mGlu 1a receptor obtained from Prof. Nakanishi (Kyoto, Japan) was transiently tranfected into EBNA cells using a procedure described by Schlaeger et. al, New Dev. New Appl. Anim Cell Techn., Proc. ESACT Meet., 15th (1998), 105-112 and 117-120. [Ca^2+ ]i measurements were performed on mGlu 1a transfected EBNA cells after incubation of the cells with Fluo-3 AM (0.5 μM final concentration) for 1hour at 37° C. followed by 4 washes with assay buffer (DMEM supplemented with Hank's salt and 20 mM HEPES. [Ca^2+ ]i measurements were done using a fluorometric imaging plate reader (FLIPR, Molecular Devices Corporation, La Jolla, Calif. USA). When compounds were evaluated as antagonists they were tested against 10 μM glutamate as agonist.
The inhibition (antagonists) or activation (agonists) curves were fitted with a four parameter logistic equation giving EC50, IC50, and Hill coefficient using the iterative non linear curve fitting software Origin (Microcal Software Inc., Northampton, Mass., USA).

T1 sequence (P23385 19-1199): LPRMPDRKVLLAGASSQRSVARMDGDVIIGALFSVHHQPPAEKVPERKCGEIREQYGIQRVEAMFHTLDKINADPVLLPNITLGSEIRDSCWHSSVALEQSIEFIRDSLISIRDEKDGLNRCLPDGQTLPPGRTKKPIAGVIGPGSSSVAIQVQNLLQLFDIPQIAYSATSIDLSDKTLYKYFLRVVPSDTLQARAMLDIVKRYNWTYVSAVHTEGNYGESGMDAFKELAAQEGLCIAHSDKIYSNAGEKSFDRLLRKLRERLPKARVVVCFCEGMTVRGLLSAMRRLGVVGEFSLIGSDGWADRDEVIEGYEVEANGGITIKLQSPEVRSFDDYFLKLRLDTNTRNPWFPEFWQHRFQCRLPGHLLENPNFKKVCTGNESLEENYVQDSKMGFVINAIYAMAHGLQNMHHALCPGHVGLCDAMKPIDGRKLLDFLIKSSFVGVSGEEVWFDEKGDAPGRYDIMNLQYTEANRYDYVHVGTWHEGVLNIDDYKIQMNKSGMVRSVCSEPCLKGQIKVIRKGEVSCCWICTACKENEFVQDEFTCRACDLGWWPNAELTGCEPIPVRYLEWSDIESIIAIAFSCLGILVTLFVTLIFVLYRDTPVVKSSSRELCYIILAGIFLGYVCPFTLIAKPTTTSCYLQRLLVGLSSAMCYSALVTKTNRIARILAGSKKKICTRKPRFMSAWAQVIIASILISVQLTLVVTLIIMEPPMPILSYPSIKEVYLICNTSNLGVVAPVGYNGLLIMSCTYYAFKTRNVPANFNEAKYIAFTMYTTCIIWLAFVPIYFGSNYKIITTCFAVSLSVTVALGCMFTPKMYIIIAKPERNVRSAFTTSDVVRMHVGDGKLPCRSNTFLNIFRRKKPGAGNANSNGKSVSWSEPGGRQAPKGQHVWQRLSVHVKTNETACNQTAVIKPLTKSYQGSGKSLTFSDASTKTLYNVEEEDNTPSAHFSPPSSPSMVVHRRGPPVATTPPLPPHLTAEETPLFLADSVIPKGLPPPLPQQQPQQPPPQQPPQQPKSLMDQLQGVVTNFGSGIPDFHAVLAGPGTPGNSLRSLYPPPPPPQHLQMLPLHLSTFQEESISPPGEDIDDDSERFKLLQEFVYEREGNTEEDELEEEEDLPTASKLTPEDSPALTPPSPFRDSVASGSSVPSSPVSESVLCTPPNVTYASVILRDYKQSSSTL

Remarks (agonist / antagonist) | agonistic / antagonistic activity to the mGlu receptor | agonist/antagonist (activity-data table) | EC50 (agonist, activation of mGlu 1a in EBNA cells, read-out: IC50 (compounds marked agonist)) [nM] | Compound
Antagonist | – | – | – | O=C(O)/C=C/C(=O)O.O=S(=O)(c1ccc(CN2CCOCC2)cc1)N1CCCC1c1ccc(F)cc1 (racemic) [Example 86, (RS)-4-{4-[2-(4-Fluoro-phenyl)-pyrrolidine-1-sulfonyl]-benzyl}-morpholine fumarate (1:1)]
Antagonist | – | – | – | NCc1ccc(S(=O)(=O)N2CCCC2c2ccc(F)cc2)cc1 (racemic) [Example 87, (RS)-4-[2-(4-Fluoro-phenyl)-pyrrolidine-1-sulfonyl]-benzylamine fumarate (1:0.5)]
agonist | agonistic activty | agonist | 620 | Cc1ccc(S(=O)(=O)N2CCC(C)C2c2ccc(F)cc2)cc1 (racemic) [Example 88, Mixture of (2RS,3RS )- and (2RS,3SR)-2-(4-fluoro-phenyl)-3-methyl-1-(toluene-1-sufonyl)-pyrrolidine]
agonist | agonistic activty | – | – | CC1CCN(S(=O)(=O)c2ccc(Cl)cc2)C1c1ccc(F)cc1 (racemic) [Example 89, Mixture of (2RS,3RS)- and (2RS,3 SR)-1-(4-chloro-benzenesulfonyl)-2-(4-fluoro-phenyl)-3-methyl-pyrrolidine]
agonist | agonistic activty | – | – | Cc1ccc(S(=O)(=O)N2CC[C@@H](CO)[C@@H]2c2ccc(F)cc2)cc1 (racemic) [Example 91, (2RS,3 RS)-[2-(4-Fluoro-phenyl)-1-(toluene-4-sulfonyl)-pyrrolidin-3-yl]-methanol]
Agonist | – | – | – | O=S(=O)(c1ccc(Cl)cc1)N1CCC[C@@H]1c1ccc(F)cc1 [Example 76, (R)-1-(4-Chloro-benzenesulfonyl)-2-(4-fluoro-phenyl)-pyrrolidine]
Agonist | agonistic activty | – | – | O=S(=O)(c1ccc(Cl)cc1)N1CCC[C@H]1c1ccc(F)cc1 [Example 77, (S)-1-(4-Chloro-benzenesulfonyl)-2-(4-fluoro-phenyl)-pyrrolidine]
Agonist | agonistic activty | – | – | Cc1ccc(S(=O)(=O)N2CCC[C@@H]2c2ccc(F)cc2)cc1 [Example 81, (R)-2-(4-Fluoro-phenyl)-1-(toluene-4-sulfonyl)-pyrrolidine]
Agonist | agonistic activty | – | – | Cc1ccc(S(=O)(=O)N2CCC[C@H]2c2ccc(F)cc2)cc1 [Example 82, (S)-2-(4-Fluoro-phenyl)-1-(toluene-4-sulfonyl)-pyrrolidine]

Source: patent publication US6284785A, “1-arenesulfonyl-2-aryl-pyrrolidine and pyridine derivatives” (Hoffmann- La Roche Inc., priority 1999, dated 2001)
